Where “and” joins values, the source holds several entries; their conditions need not be identical. Identical values can stand only once. Like-named read-outs stand apart in the source and are kept apart here.
How the values were obtained:
[1] = biological target: L-type calcium channels (ICaL), CaV1.2 channels (Homo sapiens, UniProt Q13936); conditions: cited from earlier work
[2] = biological target: cardiac voltage-gated sodium channels (Nav1.5 subtype), peak sodium current (Homo sapiens, UniProt Q14524); conditions: unbinding from bound sodium channels; cited from earlier work
IK1 = biological target: T1, IK1 (Homo sapiens, UniProt P63252); conditions: flecainide increases IK1; used to calculate Gk1; cited from earlier work
T1 sequence (P63252 1-427): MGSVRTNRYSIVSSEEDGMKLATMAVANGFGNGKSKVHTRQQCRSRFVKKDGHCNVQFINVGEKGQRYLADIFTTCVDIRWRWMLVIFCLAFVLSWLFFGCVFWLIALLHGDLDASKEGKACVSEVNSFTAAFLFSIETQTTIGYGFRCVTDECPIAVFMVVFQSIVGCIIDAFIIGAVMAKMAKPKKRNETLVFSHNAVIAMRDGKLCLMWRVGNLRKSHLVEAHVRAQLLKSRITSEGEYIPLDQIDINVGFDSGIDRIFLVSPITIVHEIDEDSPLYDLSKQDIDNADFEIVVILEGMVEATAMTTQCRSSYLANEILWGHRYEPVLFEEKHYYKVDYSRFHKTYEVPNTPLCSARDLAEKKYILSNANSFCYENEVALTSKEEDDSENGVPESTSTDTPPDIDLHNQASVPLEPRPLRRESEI

Ito = conditions: value used in O'Hara-Rudy model; cited from earlier work
Sinclair swine [3] = assay: Electrocardiograms after IV infusion in swine
Experimental: After the animals were transferred to study, all animals were randomly assigned to treatment groups per the study design described below. This study was designed as a cross-over design with a minimum of 1-week washout between Treatment “A” and Treatment “B”. […] Electrocardiograms (EKGs) were performed prior to infusion and within 30 minutes of dose completion for both “A” and “B” treatments. Infusions were performed under sedation and anesthesia was maintained post-infusion for the duration of the blood collections. Blood was collected following TABLE 5 below: prior to infusion, halfway through infusion, and at 0, 2, 4, 6, 8, 10, 15, 30, 45, 60, and 120 minutes post-infusion completion for both treatment “A” and “B”.
Swine were sedated with target doses of 0.5 mg/kg of midazolam and 25 mg/kg of ketamine (actual doses ranging from […] and 24.83-25.33 mg/kg, respectively), with the exception of one animal which received half the target doses per veterinary instruction (0.26 mg/kg midazolam and 12.67 mg/kg ketamine). Animals were anesthetized with isoflurane (5% for induction, ˜0.5-3% for maintenance) via face mask inhalation for the duration of the infusion and blood collections. All anesthesia and monitoring of vital parameters were performed in accordance with ACL-2011.
All animals underwent an electrocardiogram (EKG) using the EMKA system. EKGs were collected prior to dosing (any time prior to each dose administration) and within 30 minutes completion of each infusion per TLE-2125, Physiological Data Collection for Large Animals Using the emkaPACK4g Acquisition System. ECG waveforms were quantitatively evaluated for heart rate (HR) and PR, QRS, and QT/QTc intervals using a validated ecgAUTO system (v3.5.5, emka TECHNOLOGIES, Paris, France). • QTcB (Bazett's)=QT/RR(1/2) • QTcF (Fridericia)=QT/RR(1/3) • QTcV (Van de Water)=QT−0.087 (RR−1000) Where RR=time between successive beats, measured in milliseconds.

[4] = tested on: paroxysmal atrial fibrillation; conditions: average population; cited from earlier work
[5] = biological target: ryanodine receptor RyR2 (IRyR) (Homo sapiens, UniProt Q92736); conditions: cited from earlier work
Chain of ryanodine receptor RyR2 (IRyR) (Q92736 whole entry, the tested form may be a part): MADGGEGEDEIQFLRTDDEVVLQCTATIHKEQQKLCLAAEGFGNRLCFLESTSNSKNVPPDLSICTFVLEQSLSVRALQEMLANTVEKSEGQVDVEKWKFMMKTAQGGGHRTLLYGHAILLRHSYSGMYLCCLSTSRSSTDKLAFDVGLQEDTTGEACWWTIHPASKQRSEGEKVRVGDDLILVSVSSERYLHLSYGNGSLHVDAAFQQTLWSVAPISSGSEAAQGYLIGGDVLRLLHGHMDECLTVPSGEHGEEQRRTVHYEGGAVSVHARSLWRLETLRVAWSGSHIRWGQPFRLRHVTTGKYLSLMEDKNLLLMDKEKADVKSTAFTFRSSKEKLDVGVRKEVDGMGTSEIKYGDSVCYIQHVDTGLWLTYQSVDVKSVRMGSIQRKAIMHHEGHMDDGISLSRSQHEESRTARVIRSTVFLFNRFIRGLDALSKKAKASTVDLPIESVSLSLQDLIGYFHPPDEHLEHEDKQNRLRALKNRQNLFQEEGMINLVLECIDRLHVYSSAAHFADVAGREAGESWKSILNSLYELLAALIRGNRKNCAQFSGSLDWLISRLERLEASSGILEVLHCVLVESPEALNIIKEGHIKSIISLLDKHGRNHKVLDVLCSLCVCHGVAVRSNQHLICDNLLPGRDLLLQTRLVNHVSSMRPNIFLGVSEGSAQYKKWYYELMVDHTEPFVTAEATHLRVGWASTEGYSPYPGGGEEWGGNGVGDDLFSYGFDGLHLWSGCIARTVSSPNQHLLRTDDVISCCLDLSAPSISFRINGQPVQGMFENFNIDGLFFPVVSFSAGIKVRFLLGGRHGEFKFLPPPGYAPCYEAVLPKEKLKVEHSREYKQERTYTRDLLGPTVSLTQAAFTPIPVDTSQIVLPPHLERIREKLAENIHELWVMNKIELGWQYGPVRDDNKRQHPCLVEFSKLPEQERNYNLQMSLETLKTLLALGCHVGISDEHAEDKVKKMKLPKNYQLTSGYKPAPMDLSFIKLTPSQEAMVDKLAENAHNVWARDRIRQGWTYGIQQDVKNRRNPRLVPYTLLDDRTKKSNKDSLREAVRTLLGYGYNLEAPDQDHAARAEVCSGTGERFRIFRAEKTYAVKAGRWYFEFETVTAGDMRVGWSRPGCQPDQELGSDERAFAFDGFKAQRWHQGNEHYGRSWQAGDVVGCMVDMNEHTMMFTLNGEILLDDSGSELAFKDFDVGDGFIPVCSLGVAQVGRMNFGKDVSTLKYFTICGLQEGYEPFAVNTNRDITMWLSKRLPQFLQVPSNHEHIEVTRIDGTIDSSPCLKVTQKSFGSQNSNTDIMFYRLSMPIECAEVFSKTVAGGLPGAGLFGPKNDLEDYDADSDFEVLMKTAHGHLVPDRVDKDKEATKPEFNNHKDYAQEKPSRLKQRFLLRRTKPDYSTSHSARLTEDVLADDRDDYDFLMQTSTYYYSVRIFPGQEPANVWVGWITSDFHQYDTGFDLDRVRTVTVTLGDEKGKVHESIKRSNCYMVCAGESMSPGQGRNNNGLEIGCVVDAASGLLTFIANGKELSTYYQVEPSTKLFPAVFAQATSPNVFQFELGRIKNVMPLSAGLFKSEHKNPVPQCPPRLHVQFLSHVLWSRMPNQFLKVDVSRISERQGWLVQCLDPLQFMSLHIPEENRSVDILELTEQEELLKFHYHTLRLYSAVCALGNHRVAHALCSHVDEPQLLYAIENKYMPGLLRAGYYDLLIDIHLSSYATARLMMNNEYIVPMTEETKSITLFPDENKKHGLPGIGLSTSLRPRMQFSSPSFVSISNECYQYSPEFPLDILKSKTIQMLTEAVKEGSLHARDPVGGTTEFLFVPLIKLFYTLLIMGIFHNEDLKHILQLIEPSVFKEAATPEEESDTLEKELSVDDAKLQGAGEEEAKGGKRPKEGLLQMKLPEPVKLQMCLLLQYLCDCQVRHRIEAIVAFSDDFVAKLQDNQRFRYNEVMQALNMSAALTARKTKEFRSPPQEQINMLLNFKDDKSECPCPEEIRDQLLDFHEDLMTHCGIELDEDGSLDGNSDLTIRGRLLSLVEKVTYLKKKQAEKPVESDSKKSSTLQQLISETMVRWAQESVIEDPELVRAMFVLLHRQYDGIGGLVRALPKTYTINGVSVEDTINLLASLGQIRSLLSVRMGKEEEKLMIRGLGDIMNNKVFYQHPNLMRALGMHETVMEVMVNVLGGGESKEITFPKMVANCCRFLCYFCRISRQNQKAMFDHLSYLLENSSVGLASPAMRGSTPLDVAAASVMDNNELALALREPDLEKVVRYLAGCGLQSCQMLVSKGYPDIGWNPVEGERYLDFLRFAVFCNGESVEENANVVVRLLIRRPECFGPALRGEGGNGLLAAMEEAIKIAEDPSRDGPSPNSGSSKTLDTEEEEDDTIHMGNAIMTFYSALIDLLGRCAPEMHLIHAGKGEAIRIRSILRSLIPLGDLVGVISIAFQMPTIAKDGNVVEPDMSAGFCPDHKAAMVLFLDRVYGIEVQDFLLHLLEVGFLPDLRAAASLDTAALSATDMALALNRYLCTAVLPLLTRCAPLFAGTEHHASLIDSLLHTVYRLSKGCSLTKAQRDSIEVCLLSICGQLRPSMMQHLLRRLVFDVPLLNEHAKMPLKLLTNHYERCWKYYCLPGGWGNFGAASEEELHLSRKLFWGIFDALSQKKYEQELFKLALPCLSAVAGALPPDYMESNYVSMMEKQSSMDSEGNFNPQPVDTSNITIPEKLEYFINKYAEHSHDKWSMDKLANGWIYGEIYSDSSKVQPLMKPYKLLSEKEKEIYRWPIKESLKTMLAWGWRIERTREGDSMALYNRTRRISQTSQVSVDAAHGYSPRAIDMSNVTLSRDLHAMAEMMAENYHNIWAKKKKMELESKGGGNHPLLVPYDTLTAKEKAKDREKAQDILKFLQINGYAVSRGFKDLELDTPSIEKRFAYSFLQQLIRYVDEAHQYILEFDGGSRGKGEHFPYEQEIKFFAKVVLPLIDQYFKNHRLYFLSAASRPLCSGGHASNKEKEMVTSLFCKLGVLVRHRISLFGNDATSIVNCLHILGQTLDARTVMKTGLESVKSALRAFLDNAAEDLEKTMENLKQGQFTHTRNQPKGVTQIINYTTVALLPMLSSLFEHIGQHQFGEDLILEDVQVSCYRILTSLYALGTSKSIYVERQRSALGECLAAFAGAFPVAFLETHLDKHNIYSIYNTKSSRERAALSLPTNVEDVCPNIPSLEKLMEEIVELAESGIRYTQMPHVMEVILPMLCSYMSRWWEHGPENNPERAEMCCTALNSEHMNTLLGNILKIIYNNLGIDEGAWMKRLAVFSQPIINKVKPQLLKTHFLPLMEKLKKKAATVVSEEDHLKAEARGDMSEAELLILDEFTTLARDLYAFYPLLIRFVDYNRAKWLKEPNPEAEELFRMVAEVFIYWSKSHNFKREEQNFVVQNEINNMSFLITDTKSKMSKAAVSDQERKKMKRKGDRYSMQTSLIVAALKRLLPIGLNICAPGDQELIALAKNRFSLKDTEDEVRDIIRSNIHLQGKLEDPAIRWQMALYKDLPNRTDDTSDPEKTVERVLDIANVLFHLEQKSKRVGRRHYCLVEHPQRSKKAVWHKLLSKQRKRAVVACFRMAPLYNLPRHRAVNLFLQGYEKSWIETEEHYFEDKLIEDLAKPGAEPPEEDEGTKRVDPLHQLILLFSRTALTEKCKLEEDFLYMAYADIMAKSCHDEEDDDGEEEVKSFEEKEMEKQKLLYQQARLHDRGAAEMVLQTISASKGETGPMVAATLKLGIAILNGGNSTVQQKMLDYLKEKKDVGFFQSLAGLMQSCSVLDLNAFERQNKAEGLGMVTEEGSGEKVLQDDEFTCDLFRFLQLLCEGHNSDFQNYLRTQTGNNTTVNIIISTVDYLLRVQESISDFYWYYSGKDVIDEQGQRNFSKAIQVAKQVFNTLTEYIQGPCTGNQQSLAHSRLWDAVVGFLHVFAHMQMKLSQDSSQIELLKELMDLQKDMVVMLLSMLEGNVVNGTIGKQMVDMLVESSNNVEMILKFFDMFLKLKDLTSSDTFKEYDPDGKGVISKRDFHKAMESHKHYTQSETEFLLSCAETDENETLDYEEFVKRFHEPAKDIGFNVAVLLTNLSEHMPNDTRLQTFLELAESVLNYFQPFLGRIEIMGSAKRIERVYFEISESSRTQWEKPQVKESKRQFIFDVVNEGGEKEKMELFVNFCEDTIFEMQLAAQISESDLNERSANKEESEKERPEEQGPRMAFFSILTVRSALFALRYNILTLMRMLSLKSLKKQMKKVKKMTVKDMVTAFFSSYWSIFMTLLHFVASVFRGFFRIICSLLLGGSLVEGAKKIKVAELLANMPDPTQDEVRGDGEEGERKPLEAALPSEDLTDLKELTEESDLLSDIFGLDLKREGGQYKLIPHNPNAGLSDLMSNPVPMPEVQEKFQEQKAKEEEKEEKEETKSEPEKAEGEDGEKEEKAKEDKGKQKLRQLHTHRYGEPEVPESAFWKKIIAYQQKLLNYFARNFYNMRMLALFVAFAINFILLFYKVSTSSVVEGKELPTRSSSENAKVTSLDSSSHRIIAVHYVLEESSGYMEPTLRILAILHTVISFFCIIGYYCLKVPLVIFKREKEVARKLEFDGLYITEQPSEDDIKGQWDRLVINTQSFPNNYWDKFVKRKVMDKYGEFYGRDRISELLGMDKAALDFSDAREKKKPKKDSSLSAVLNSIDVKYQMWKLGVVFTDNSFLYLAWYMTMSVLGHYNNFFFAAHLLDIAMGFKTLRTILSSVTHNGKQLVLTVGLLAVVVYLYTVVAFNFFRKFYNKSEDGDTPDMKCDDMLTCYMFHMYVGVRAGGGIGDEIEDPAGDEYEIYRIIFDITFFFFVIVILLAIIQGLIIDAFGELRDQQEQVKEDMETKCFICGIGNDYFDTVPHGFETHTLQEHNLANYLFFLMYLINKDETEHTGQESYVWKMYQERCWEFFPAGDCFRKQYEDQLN

[6] = tested on: ACh-mediated AF in isolated arterially-perfused canine right atrium; assay: Termination of ACh-induced persistent AF in canine isolated coronary-perfused right atrial preparations (Series II); parameters: species or system canine (Beagles); conditions: flecainide 1.5 μM, ibutilide 20 nM, ACh 0.5 μM
Experimental: Experiments were performed using isolated arterially-perfused canine preparations consisting of right atrium with a rim of right ventricle. The hearts were from Beagles approximately 1 year of age and were stored in ice cold cardioplegic solution for approximately 40 minutes before experimentation.
During experiments, transmembrane action potential (AP) recordings (sampling rate 41 kHz) were obtained from the atrium and ventricle using floating glass microelectrodes (10-25 MΩ DC resistance). A pseudo-electrocardiogram (ECG) was recorded using two electrodes consisting of Ag/AgCl half cells placed in the Tyrode's solution, bathing the preparation, 1.0 to 1.2 cm from opposite ends of the atrial coronary-perfused preparations (FIG. 1). […] The diastolic threshold of excitation (DTE) was determined by increasing stimulus intensity in 0.01 mA steps starting from 0.1 mA, until a steady 1:1 activation was achieved. Post-repolarization refractoriness (PRR) was recognized when ERP exceeded APD90 in the ventricle and APD70 in atria. Ventricular ERP coincides with APD90, whereas atrial ERP generally coincides with APD70.
Ventricular electrical activity was monitored for the development of early afterdepolarizations (EADs) and torsade de pointes (TdP).
Stock solutions were made by dissolving test article dry powder in distilled water vehicle. […]

[7] = tested on: canine left ventricular wedge preparations; assay: Canine left ventricular wedge preparation, repolarization/EAD sensitised (Series III); conditions: ibutilide 50 nM 40 min, then flecainide 1.5 μM 30 min added; 3 mM KCl
Experimental: Drugs were administered in the order and concentrations specified in TABLE 4.
Canine left ventricular (LV) wedge preparations were excised from the same hearts used to obtain the right atrial preparations.
Panel A: Control. […] The numbers appearing under M APs indicate APD90 values, and those on the ECG recordings indicate QT interval values.

Sinclair swine [8] = assay: Clinical observations and survival in swine; assay type: in vivo; conditions: two animals (one treatment A, one treatment B); deemed due to anesthesia
Text: All animals survived to study completion. Animals underwent clinical observations continuously while the animals are under anesthesia during, pre- and post-dosing through to final blood collection per TXP-1532, Pharmacologic and Toxicological Observations of Experimental Animals, and twice daily per ACL-1974 Receipt, Quarantine and Husbandry of Swine. […] One of the animals in question was during the high-dose treatment (“B”) and was intubated and provided oxygen under the direction of veterinary staff. The other animal was during the low-dose treatment (“A”) and returned to breathing normally without need of additional support. Both of these abnormal events were deemed due to anesthesia.
All animals survived to study completion with no definitive test article clinical observations.

[9] = cited from earlier work
[10] = Treatment A (flecainide 1 mg/kg, ibutilide 0.007 mg/kg or both, IV), individual animal
[11] = Treatment B (flecainide 2 mg/kg, ibutilide 0.014 mg/kg or both, IV), individual animal

Compound | Avg ATcV, baseline-normalized post-infusion (Sinclair swine [3]; [10]) | Avg HR, baseline-normalized post-infusion (Sinclair swine [3]; [10]) | Avg PR, baseline-normalized post-infusion (Sinclair swine [3]; [10]) | Avg QRS, baseline-normalized post-infusion (Sinclair swine [3]; [10]) | Avg QT, baseline-normalized post-infusion (Sinclair swine [3]; [10]) | Avg QTcB, baseline-normalized post-infusion (Sinclair swine [3]; [10]) | Avg QTcF, baseline-normalized post-infusion (Sinclair swine [3]; [10]) | Avg ATcV, baseline-normalized post-infusion (Sinclair swine [3]; Treatment A, group mean) | Avg HR, baseline-normalized post-infusion (Sinclair swine [3]; Treatment A, group mean) | Avg PR, baseline-normalized post-infusion (Sinclair swine [3]; Treatment A, group mean) | Avg QRS, baseline-normalized post-infusion (Sinclair swine [3]; Treatment A, group mean) | Avg QT, baseline-normalized post-infusion (Sinclair swine [3]; Treatment A, group mean) | Avg QTcB, baseline-normalized post-infusion (Sinclair swine [3]; Treatment A, group mean) | Avg QTcF, baseline-normalized post-infusion (Sinclair swine [3]; Treatment A, group mean) | Avg ATcV, baseline-normalized post-infusion (Sinclair swine [3]; [11]) | Avg HR, baseline-normalized post-infusion (Sinclair swine [3]; [11]) | Avg PR, baseline-normalized post-infusion (Sinclair swine [3]; [11]) | Avg QRS, baseline-normalized post-infusion (Sinclair swine [3]; [11]) | Avg QT, baseline-normalized post-infusion (Sinclair swine [3]; [11]) | Avg QTcB, baseline-normalized post-infusion (Sinclair swine [3]; [11]) | also measured
[Mg+2] [Mg^2+] |  |  |  |  |  |  |  |  |  |  |  |  |  |  |  |  |  |  |  |  | decrease in ICaL ([1]; ICaL stimulated by cAMP (beta-adrenergic agonists)): about 63%; decrease in ICaL ([1]; basal conditions): about 26%
O=C(NCC1CCCCN1)c1cc(OCC(F)(F)F)ccc1OCC(F)(F)F (stereo not drawn) [Flecainide, N-(piperidin-2-ylmethyl)-2,5-bis(2,2,2-trifluoroethoxy)benzamide] | −4.4% and −6.0% and −2.6% | −7.2% and −26.5% and −9.6% | 22.3% and 17.5% and 8.6% | 0.1% and −1.3% and 3.5% | −3.5% and −1.6% and −1.4% | −7.1% and −15.7% and −6.3% | −5.9% and −11.2% and −4.7% | −4.3% | −14.5% | 16.1% | 0.7% | −2.2% | −9.7% | −7.3% | 11.4% and −2.3% and −1.9% | 0.4% and −18.8% and −13.6% | 13.3% and 9.7% and 24.6% | 4.4% and 3.3% and 18.2% | 12.6% and 2.1% and 0.1% | 12.8% and −8.0% and −6.9% | unbinding time τoff [2]: ≈ 20.5 sec; EC50 (IK1): 0.4 µM; IC50 (Ito): 15.2 µM; Avg QTcF, baseline-normalized post-infusion (Sinclair swine [3]; [11]): 12.7% and −4.7% and −4.6%; Avg ATcV, baseline-normalized post-infusion (Sinclair swine [3]; Treatment B, group mean): 2.4%; Avg HR, baseline-normalized post-infusion (Sinclair swine [3]; Treatment B, group mean): −10.7%; Avg PR, baseline-normalized post-infusion (Sinclair swine [3]; Treatment B, group mean): 15.8%; Avg QRS, baseline-normalized post-infusion (Sinclair swine [3]; Treatment B, group mean): 8.7%; Avg QT, baseline-normalized post-infusion (Sinclair swine [3]; Treatment B, group mean): 4.9%; Avg QTcB, baseline-normalized post-infusion (Sinclair swine [3]; Treatment B, group mean): −0.7%; Avg QTcF, baseline-normalized post-infusion (Sinclair swine [3]; Treatment B, group mean): 1.1%; patients with paroxysmal atrial fibrillation exhibiting resistance to monotherapy [4]: approximately 30%; IC50 ([5]; read-out: potency for inhibition of RyR2): ~20 µM; IC50 ([5]; value used in O'Hara-Rudy model, read-out: IC50 IRyR): 20 µM
CCCCCCCN(CC)CCCC(O)c1ccc(NS(C)(=O)=O)cc1 (stereo not drawn) [Ibutilide, N-(4-(4-(ethyl(heptyl)amino)-1-hydroxybutyl)phenyl)methanesulfonamide] | 14.4% and 10.5% and 5.0% | −19.5% and −54.7% and −28.7% | 4.8% and 40.7% and 7.1% | 8.2% and 7.3% and 4.9% | 19.9% and 28.1% and 11.7% | 7.5% and −13.4% and −5.8% | 11.5% and −1.4% and −0.3% | 10.0% | −34.3% | 17.5% | 6.8% | 19.9% | −3.9% | 3.3% | 16.1% and 13.1% and 13.6% | −38.3% and −12.7% and −15.4% | 28.2% and 2.9% and 14.7% | 7.7% and 16.8% and 6.5% | 26.6% and 16.3% and 18.3% | −0.6% and 8.5% and 8.9% | termination of ACh-induced persistent AF (preparations terminated out of tested) [6]: 1 out of 3; effect on repolarization (QT interval, Tpeak-Tend) [7]: significantly prolonged repolarization; Avg QTcF, baseline-normalized post-infusion (Sinclair swine [3]; [11]): 7.8% and 11.0% and 11.9%; Avg ATcV, baseline-normalized post-infusion (Sinclair swine [3]; Treatment B, group mean): 14.3%; Avg HR, baseline-normalized post-infusion (Sinclair swine [3]; Treatment B, group mean): −22.1%; Avg PR, baseline-normalized post-infusion (Sinclair swine [3]; Treatment B, group mean): 15.3%; Avg QRS, baseline-normalized post-infusion (Sinclair swine [3]; Treatment B, group mean): 10.3%; Avg QT, baseline-normalized post-infusion (Sinclair swine [3]; Treatment B, group mean): 20.4%; Avg QTcB, baseline-normalized post-infusion (Sinclair swine [3]; Treatment B, group mean): 5.6%; Avg QTcF, baseline-normalized post-infusion (Sinclair swine [3]; Treatment B, group mean): 10.3%; QT/QTc (QTcV) change post-infusion (Sinclair swine [3]; treatments A/B): increased; abnormal clinical observations (Sinclair swine [8]): stopped breathing under anesthesia
CCCCCCCCCCCCCCCC(=O)OC[C@H](COP(=O)([O-])OCC[N+](C)(C)C)OC(=O)CCCCCCCCCCCCCCC [DPPC, dipalmitoylphosphatidylcholine] |  |  |  |  |  |  |  |  |  |  |  |  |  |  |  |  |  |  |  |  | solubility in water [9]: about 10^−10 mol/L

— patent US12576074B2, “Kits and methods for induction of cardioversion in subjects with atrial arrhythmias” (InCarda Therapeutics, Inc., priority 2020, dated 2026)
